{"source": "PubChem BioAssay (NCI)", "assay_in_all_cases": "growth of human tumour cells (NCI), 48 h", "key": {"NCI-H23 lung": {"tested_on": "NCI-H23 lung"}, "SN12C renal": {"tested_on": "SN12C renal"}, "COLO 205 colon": {"tested_on": "COLO 205 colon"}, "SR leukemia": {"tested_on": "SR leukemia"}, "HOP-62 NSCLC": {"tested_on": "HOP-62 NSCLC"}, "786-0 renal": {"tested_on": "786-0 renal"}, "M14 melanoma": {"tested_on": "M14 melanoma"}, "ACHN renal": {"tested_on": "ACHN renal"}, "HT29 colon": {"tested_on": "HT29 colon"}, "HOP-92 NSCLC": {"tested_on": "HOP-92 NSCLC"}, "SF-295 CNS": {"tested_on": "SF-295 CNS"}, "UACC-257 melanoma": {"tested_on": "UACC-257 melanoma"}, "TK-10 renal": {"tested_on": "TK-10 renal"}, "UACC-62 melanoma": {"tested_on": "UACC-62 melanoma"}, "RPMI-8226 leukemia": {"tested_on": "RPMI-8226 leukemia"}, "PC-3 prostate": {"tested_on": "PC-3 prostate"}, "LOX IMVI melanoma": {"tested_on": "LOX IMVI melanoma"}, "HCC-2998 colon": {"tested_on": "HCC-2998 colon"}, "U251 CNS": {"tested_on": "U251 CNS"}, "MOLT-4 leukemia": {"tested_on": "MOLT-4 leukemia"}, "SF-539 CNS": {"tested_on": "SF-539 CNS"}, "OVCAR-4 ovarian": {"tested_on": "OVCAR-4 ovarian"}, "SK-MEL-28 melanoma": {"tested_on": "SK-MEL-28 melanoma"}, "HS 578T breast": {"tested_on": "HS 578T breast"}, "MDA-MB-231 breast": {"tested_on": "MDA-MB-231 breast"}, "DU-145 prostate": {"tested_on": "DU-145 prostate"}, "K-562 leukemia": {"tested_on": "K-562 leukemia"}, "EKVX NSCLC": {"tested_on": "EKVX NSCLC"}, "UO-31 renal": {"tested_on": "UO-31 renal"}, "KM12 colon": {"tested_on": "KM12 colon"}, "NCI-H460 lung": {"tested_on": "NCI-H460 lung"}, "NCI/ADR-RES ovarian": {"tested_on": "NCI/ADR-RES ovarian"}, "NCI-H226 lung": {"tested_on": "NCI-H226 lung"}, "OVCAR-3 ovarian": {"tested_on": "OVCAR-3 ovarian"}, "NCI-H522 lung": {"tested_on": "NCI-H522 lung"}, "SNB-19 CNS": {"tested_on": "SNB-19 CNS"}, "BT-549 breast": {"tested_on": "BT-549 breast"}, "SW-620 colon": {"tested_on": "SW-620 colon"}, "SNB-75 CNS": {"tested_on": "SNB-75 CNS"}, "T-47D breast": {"tested_on": "T-47D breast"}, "MDA-MB-435": {"tested_on": "MDA-MB-435"}, "HCT-116 colon": {"tested_on": "HCT-116 colon"}, "MDA-N": {"tested_on": "MDA-N"}, "SF-268 CNS": {"tested_on": "SF-268 CNS"}, "MCF7 breast": {"tested_on": "MCF7 breast"}, "IGROV1 ovarian": {"tested_on": "IGROV1 ovarian"}, "A498 renal": {"tested_on": "A498 renal"}, "SK-OV-3 ovarian": {"tested_on": "SK-OV-3 ovarian"}, "OVCAR-5 ovarian": {"tested_on": "OVCAR-5 ovarian"}, "SK-MEL-5 melanoma": {"tested_on": "SK-MEL-5 melanoma"}, "CAKI-1 renal": {"tested_on": "CAKI-1 renal"}, "OVCAR-8 ovarian": {"tested_on": "OVCAR-8 ovarian"}, "RXF 393 renal": {"tested_on": "RXF 393 renal"}, "HL-60(TB) leukemia": {"tested_on": "HL-60(TB) leukemia"}, "A549 NSCLC": {"tested_on": "A549 NSCLC"}, "SK-MEL-2 melanoma": {"tested_on": "SK-MEL-2 melanoma"}, "HCT-15 colon": {"tested_on": "HCT-15 colon"}, "MALME-3M melanoma": {"tested_on": "MALME-3M melanoma"}}, "note": "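Cells were grown in 96-well plates and exposed to each compound for 48 hours at five concentrations; endpoints were interpolated linearly between bracketing concentrations, or set to the highest concentration if not reached. TGI: total growth inhibition.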"}
{"smiles": "COC(=O)C(Cc1ccccc1)NP(=O)(O)OCC1OC(n2cc(F)c(=O)[nH]c2=O)CC1O", "note": "(stereo not drawn)", "values": [{"measurement": "TGI", "setting": "NCI-H23 lung", "value": "> 100", "unit": "µM"}, {"measurement": "TGI", "setting": "SN12C renal", "value": "> 100", "unit": "µM"}, {"measurement": "TGI", "setting": "COLO 205 colon", "value": "> 100", "unit": "µM"}, {"measurement": "TGI", "setting": "SR leukemia", "value": "> 56.5", "unit": "µM"}, {"measurement": "TGI", "setting": "HOP-62 NSCLC", "value": "> 100", "unit": "µM"}, {"measurement": "TGI", "setting": "786-0 renal", "value": "> 100", "unit": "µM"}, {"measurement": "TGI", "setting": "M14 melanoma", "value": "> 100", "unit": "µM"}, {"measurement": "TGI", "setting": "ACHN renal", "value": "> 100", "unit": "µM"}, {"measurement": "TGI", "setting": "HT29 colon", "value": "> 100", "unit": "µM"}, {"measurement": "TGI", "setting": "HOP-92 NSCLC", "value": "> 55.2", "unit": "µM"}, {"measurement": "TGI", "setting": "SF-295 CNS", "value": "> 100", "unit": "µM"}, {"measurement": "TGI", "setting": "UACC-257 melanoma", "value": "> 100", "unit": "µM"}, {"measurement": "TGI", "setting": "TK-10 renal", "value": "> 100", "unit": "µM"}, {"measurement": "TGI", "setting": "UACC-62 melanoma", "value": "> 100", "unit": "µM"}, {"measurement": "TGI", "setting": "RPMI-8226 leukemia", "value": "> 100", "unit": "µM"}, {"measurement": "TGI", "setting": "PC-3 prostate", "value": "> 100", "unit": "µM"}, {"measurement": "TGI", "setting": "LOX IMVI melanoma", "value": "> 100", "unit": "µM"}, {"measurement": "TGI", "setting": "HCC-2998 colon", "value": "> 100", "unit": "µM"}, {"measurement": "TGI", "setting": "U251 CNS", "value": "> 100", "unit": "µM"}, {"measurement": "TGI", "setting": "MOLT-4 leukemia", "value": "> 93.9", "unit": "µM"}, {"measurement": "TGI", "setting": "SF-539 CNS", "value": 63.9, "unit": "µM"}, {"measurement": "TGI", "setting": "OVCAR-4 ovarian", "value": "> 100", "unit": "µM"}, {"measurement": "TGI", "setting": "SK-MEL-28 melanoma", "value": "> 100", "unit": "µM"}, {"measurement": "TGI", "setting": "HS 578T breast", "value": "> 100", "unit": "µM"}, {"measurement": "TGI", "setting": "MDA-MB-231 breast", "value": "> 100", "unit": "µM"}, {"measurement": "TGI", "setting": "DU-145 prostate", "value": "> 100", "unit": "µM"}, {"measurement": "TGI", "setting": "K-562 leukemia", "value": "> 100", "unit": "µM"}, {"measurement": "TGI", "setting": "EKVX NSCLC", "value": "> 100", "unit": "µM"}, {"measurement": "TGI", "setting": "UO-31 renal", "value": "> 100", "unit": "µM"}, {"measurement": "TGI", "setting": "KM12 colon", "value": "> 100", "unit": "µM"}, {"measurement": "TGI", "setting": "NCI-H460 lung", "value": "> 100", "unit": "µM"}, {"measurement": "TGI", "setting": "NCI/ADR-RES ovarian", "value": "> 100", "unit": "µM"}, {"measurement": "TGI", "setting": "NCI-H226 lung", "value": "> 100", "unit": "µM"}, {"measurement": "TGI", "setting": "OVCAR-3 ovarian", "value": "> 100", "unit": "µM"}, {"measurement": "TGI", "setting": "NCI-H522 lung", "value": "> 100", "unit": "µM"}, {"measurement": "TGI", "setting": "SNB-19 CNS", "value": "> 100", "unit": "µM"}, {"measurement": "TGI", "setting": "BT-549 breast", "value": "> 100", "unit": "µM"}, {"measurement": "TGI", "setting": "SW-620 colon", "value": "> 100", "unit": "µM"}, {"measurement": "TGI", "setting": "SNB-75 CNS", "value": "> 100", "unit": "µM"}, {"measurement": "TGI", "setting": "T-47D breast", "value": "> 100", "unit": "µM"}, {"measurement": "TGI", "setting": "MDA-MB-435", "value": "> 100", "unit": "µM"}, {"measurement": "TGI", "setting": "HCT-116 colon", "value": "> 100", "unit": "µM"}, {"measurement": "TGI", "setting": "MDA-N", "value": "> 100", "unit": "µM"}, {"measurement": "TGI", "setting": "SF-268 CNS", "value": "> 100", "unit": "µM"}, {"measurement": "TGI", "setting": "MCF7 breast", "value": "> 100", "unit": "µM"}, {"measurement": "TGI", "setting": "IGROV1 ovarian", "value": "> 100", "unit": "µM"}, {"measurement": "TGI", "setting": "A498 renal", "value": "> 100", "unit": "µM"}, {"measurement": "TGI", "setting": "SK-OV-3 ovarian", "value": "> 100", "unit": "µM"}, {"measurement": "TGI", "setting": "OVCAR-5 ovarian", "value": "> 100", "unit": "µM"}, {"measurement": "TGI", "setting": "SK-MEL-5 melanoma", "value": "> 100", "unit": "µM"}, {"measurement": "TGI", "setting": "CAKI-1 renal", "value": "> 100", "unit": "µM"}, {"measurement": "TGI", "setting": "OVCAR-8 ovarian", "value": "> 100", "unit": "µM"}, {"measurement": "TGI", "setting": "RXF 393 renal", "value": "> 100", "unit": "µM"}, {"measurement": "TGI", "setting": "HL-60(TB) leukemia", "value": "> 100", "unit": "µM"}, {"measurement": "TGI", "setting": "A549 NSCLC", "value": "> 100", "unit": "µM"}, {"measurement": "TGI", "setting": "SK-MEL-2 melanoma", "value": "> 100", "unit": "µM"}, {"measurement": "TGI", "setting": "HCT-15 colon", "value": "> 100", "unit": "µM"}, {"measurement": "TGI", "setting": "MALME-3M melanoma", "value": "> 100", "unit": "µM"}]}
